Test results as given in patent publication US20100035996A1, “GLUCOSE METABOLISM STIMULATING AGENT” (Shionogi & Co Ltd, priority 2006, published 2010).

Tests used:
Type in all cases: in vivo
[1] = test system: male C57BL/6J-ob/ob mice; assay: Body weight change during the 4-week dosing period; settings: 25, 50 or 100 mg/kg orally twice a day for 4 weeks (FIG. 2)
Procedure: (§1) The following Examples 1 to 3 were carried out in an obesity model mouse, male C57BL/6J-ob/ob mice (12-17 week old, 40-60 g) to study the effect of Compound (a) on glucose metabolism in mice.
(§2) Hydroxypropylmethyl cellulose solution (0.5% w/v, Shin-Etsu Chemical Co., Ltd) or Compound (a) or (b) suspended in the solution were orally administered at 25, 50 or 100 mg/kg twice a day (8:00-10:00, 16:30-18:00) for 4 weeks. Food was removed in the morning (8:00-9:00) of the last day of administration. Mice were kept under fasting until the end of glucose tolerance test. In this period, the mice were allowed free access to water. The next day, glucose tolerance test was carried out in the afternoon (13:00-16:00). Blood was collected from tail veins just before and at 15, 30, 60 and 120 minutes after oral administration of glucose (2 g/kg) to examine plasma glucose levels. AUC (area under the curve) was calculated by the trapezoidal method from the graphs made with obtained values (FIG. 1). AUCs in mice treated with Compound (a) at 25 mg/kg, 50 mg/kg and 100 mg/kg were 25610 mg·min/dL, 20315 mg·min/dL and 15848 mg·min/dL, respectively. AUC in control mice (dosed with 0.5% hydroxypropylmethyl cellulose solution) was 29863 mg·min/dL.

[2] = test system: male C57BL/6J-ob/ob mice; assay: Glucose tolerance test in obesity model mice, short-term administration; settings: 100 mg/kg oral gavage
Procedure: as §1
Compound (a) was administered to mice for short term and then glucose tolerance test was performed. In the morning (8:00-10:00) of the previous day of the test, hydroxypropylmethyl cellulose solution (0.5% w/v, Shin-Etsu Chemical Co., Ltd) or Compound (a) at 100 mg/kg suspended in the solution was administered by oral gavage. Food was removed just after the administration. Mice were kept under fasting until the end of glucose tolerance test. In this period, the mice were allowed free access to water. The oral administration was also performed in the evening of the previous day of the test (17:00-18:00) and in the morning of the day of the test (8:00-9:00). Glucose tolerance test was carried out in the afternoon (13:00-16:00), and AUC was calculated as described in Example 1 (FIG. 3).

[3] = test system: male C57BL/6J-ob/ob mice; assay: Glucose tolerance test in obesity model mice, administration for 4 weeks; settings: for AUC of plasma glucose levels in glucose tolerance test: oral glucose 2 g/kg, 0-120 min, control 29863
Procedure: as §1, §2

[4] = test system: male C57BL/6J-ob/ob mice; assay: Glucose tolerance test in obesity model mice, administration for 1 week; settings: 100 mg/kg orally twice a day for a week
Procedure: as §1
Hydroxypropylmethyl cellulose solution (0.5% w/v, Shin-Etsu Chemical Co., Ltd) or Compound (b) suspended in the solution were orally administered at 100 mg/kg twice a day (8:00-10:00, 16:30-18:00) for a week. Food was removed in the morning (8:00-9:00) of the last day of administration. Mice were kept under fasting until the end of glucose tolerance test. In this period, the mice were allowed free access to water. The next day, glucose tolerance test was carried out in the afternoon (13:00-16:00) and then AUC was calculated as described in Example 1 (FIG. 4).

[5] = 100 mg/kg orally twice a day for 4 weeks

Row | Compound | Change in body weight during the dosing period [1] | AUC of plasma glucose levels in glucose tolerance test ([2]; three doses (morning and evening of previous day, morning of test day), control 15033) [mg·min/dL] | AUC compared to control mice ([2]; three doses, short term) | AUC of plasma glucose levels in glucose tolerance test ([3]; 25 mg/kg orally twice a day for 4 weeks) [mg·min/dL] | AUC of plasma glucose levels in glucose tolerance test ([3]; 50 mg/kg orally twice a day for 4 weeks) [mg·min/dL] | AUC compared to control mice [3, 5] | AUC of plasma glucose levels in glucose tolerance test [3, 5] [mg·min/dL] | AUC change across doses ([3]; 25, 50, 100 mg/kg orally twice a day for 4 weeks) | AUC compared to control mice [4] | AUC of plasma glucose levels in glucose tolerance test ([4]; control 22532) [mg·min/dL]
1 | CC(C)(C)S(=O)(=O)N[C@H]1CC[C@H](C(=O)Nc2ccc(C(F)(F)F)cn2)CC1 [Compound (a)] | no statistically significant change | 22423 | statistically significant decrease | 25610 | 20315 | statistically significant decrease | 15848 | decreased with dose-dependent manner | – | –
2 | CCS(=O)(=O)N[C@H]1CC[C@H](C(=O)Nc2ccc(N3C[C@@H](C)O[C@@H](C)C3)cc2)CC1 [Compound (b)] | – | – | – | – | – | – | – | – | statistically significant decrease | 15546
